# Test: First order rate constant for spontaneous decomposition
# Type: ADME
smiles,measurement,value
N[C@@H](CSN=O)C(=O)O,Rate constant,0.0000146 s⁻¹

# Reference: ChEMBL document CHEMBL1130560, “Kinetic studies of the reaction of S-nitroso-L-cysteine with L-cysteine” (Bioorg Med Chem Lett, 1997)
